PubChem BioAssay AID1959 (Broad Institute, 2009)
pEC50: −log10 of the molar value. Activity calls are given as the source filed them.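 The calls were made as follows: active = growth-inhibition EC50 no more than tenfold above the top tested dose; inconclusive = flat fit between 30% and 70% inhibition, or unreliable fit; inactive = EC50 more than tenfold above the top tested dose.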

What follows are molecules tested on E. coli NEB5alpha growth, BacTiter-Glo luminescence, 4 h (assay: antibacterial activity against E. coli NEB5alpha – luminescence, counter-screen for MEX-5/POS-1 RNA-binding inhibitor project, dose response (AID 1959);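 also: pUC19-transformed ampicillin-resistant cells grown in LB with ampicillin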).
For `O=C(N/N=C/c1c(O)n(CCc2ccc(F)cc2)c(=O)[nH]c1=O)c1ccccc1`, the EC50 was > 11 µM (inactive). For `COc1ccc2nc3ccccc3nc2c1NC(=O)c1ccc(Cl)cc1Cl`, the EC50 was > 11 µM (inactive). `CC1(OC(=O)c2cccs2)C(=O)C=C2C=C(C3CC3)OC=C2C1=O` (configuration not stated) was tested, and the EC50 was > 11 µM (inactive). In the case of `CCN(C(=O)c1cc(Cl)ccc1OC)C1CCCCC1`, the EC50 was > 11 µM (inactive). In the case of `Cc1cc2c3c(c1)C(C)CC(C)(C)N3C(=O)C2=O` (configuration not stated), the EC50 was > 11 µM (inactive). `COc1ccccc1CCC(=O)OCc1csc(CC(=O)Nc2ccccc2C)n1` was tested, and the EC50 was > 11 µM (inactive). In the case of `CCn1c(C)nc2cc(N)ccc21`, the EC50 was > 11 µM (inactive). For `COc1cccc(/C=N/Nc2ncnc(N)c2[N+](=O)[O-])c1OC`, the EC50 was > 11 µM (inactive). In the case of `Cc1cccc(NC2=Nc3ccccc3N3C2=Nc2c(c(C)nn2-c2ccccc2)C3c2ccc(O)c(O)c2)c1` (configuration not stated), the EC50 was > 11 µM (inactive). With `COc1cccc2c1NC(C(=O)O)C1CC=CC21` (configuration not stated) the EC50 was > 11 µM (inactive). `COCCNC(=O)CCC(=O)NNc1nc2ccccc2c2nc(C)nn12` was tested, and the EC50 was > 11 µM (inactive). With `CC(=O)c1c(O)cc(O)cc1CC(=O)O` the EC50 was > 11 µM (inactive). `O=c1oc2c3c4c(cc2s1)CCCN4CCC3` was tested, and the EC50 was > 11 µM (inactive). With `CCOC(=O)c1c2c3c(cccc3n(C)c1=O)C(=O)c1ccccc1-2` the EC50 was > 11 µM (inactive). With `COc1ccccc1C(=O)Nc1ccnn1C1CCN(C(C)CSC)CC1` (configuration not stated) the EC50 was > 11 µM (inactive). For `Cc1cc(/C=c2\sc3nc4ccccc4n3c2=O)c(C)n1-c1ccc(C(=O)O)cc1`, the EC50 was > 11 µM (inactive). With `Cc1cc(C=O)c(C)n1-c1cc(C(=O)O)cc(C(=O)O)c1` the EC50 was > 11 µM (inactive). In the case of `CC1CCN(c2nc3ccccc3nc2C(C#N)C(=O)NC2CCCCC2)CC1` (configuration not stated), the EC50 was > 11 µM (inactive). For `COc1ccc(C2C(C(=O)c3ccco3)=C(O)C(=O)N2c2nnc(C)s2)cc1` (configuration not stated), the EC50 was > 11 µM (inactive). For `N#C/C(=C\N1CCN(Cc2ccc3c(c2)OCO3)CC1)c1nc2ccccc2s1`, the EC50 was > 11 µM (inactive). `CCN(CC)CCN1C(=O)c2cccc3cc(N)cc(c23)C1=O` was tested, and the EC50 was > 11 µM (inactive). With `CSc1nsc2nc(=O)c(/C=C3\C=Nc4ccccc43)c(N)n12` the EC50 was > 11 µM (inactive). In the case of `COC(=O)CCCC1=CC2=CC(=O)C(C)(O)C(=O)C2=CO1` (configuration not stated), the EC50 was > 11 µM (inactive). For `C[C@H]1c2cccc(O)c2C(O)=C2C(=O)[C@]3(O)C(O)=C(C(N)=O)C(=O)[C@@H](N(C)C)C3[C@@H](O)C21` (some centres not stated), the pEC50 was 5.34. With `CCN1C(=O)/C(=C\N(C)C)NC1=S` the EC50 was > 11 µM (inactive). In the case of `O=C1CNC(=S)N1CCc1ccc(O)c(O)c1`, the EC50 was > 11 µM (inactive). With `COc1ccc(-c2cc(C(=O)N/N=C(\C)c3ccco3)c3ccccc3n2)c(OC)c1` the EC50 was > 11 µM (inactive). For `Oc1ccc(C2=CSC3=NCCN23)cc1O`, the EC50 was > 11 µM (inactive). For `Cc1cc(NC(=O)/C(C#N)=C/c2ccc(-c3ccc(SC(F)F)cc3)o2)n(-c2ccccc2)n1`, the EC50 was > 11 µM (inactive). With `COc1ccc(N/C(=C(/C(Cl)=C(Cl)Cl)[N+](=O)[O-])n2nnc3ccccc32)cc1` the EC50 was > 11 µM (inactive). In the case of `O=c1[nH]c(=O)n(-c2cccc(Cl)c2)c(O)c1/C=N/c1ccccn1`, the EC50 was > 11 µM (inactive). With `O=[N+]([O-])c1ccccc1S(=O)(=O)n1nnc2ccccc21` the EC50 was > 11 µM (inactive). In the case of `COc1cc2c(cc1OC)-c1c(OC)c(OC)cc3ccnc(c13)C2=O`, the EC50 was > 11 µM (inactive). In the case of `COC(=O)C1CSc2[nH]c(=O)sc2C1c1ccccc1` (configuration not stated), the EC50 was > 11 µM (inactive). With `COC(=O)C1CSc2[nH]c(=O)sc2C1c1ccc(OC)c(OC)c1` (configuration not stated) the EC50 was > 11 µM (inactive). With `COc1ccc(P2(=O)Nc3ccccc3N2)cc1` the EC50 was > 11 µM (inactive). With `CC1C2C(C)N(C)C(=O)N(C)C2N(C)C(=O)N1C` (configuration not stated) the EC50 was > 11 µM (inactive). In the case of `Cc1ccc(N/C=C2/Sc3ccccc3NC2=O)cc1`, the EC50 was > 11 µM (inactive). For `CC1=NN(c2cccc(C(=O)O)c2)C(=O)/C1=C\C=C\c1ccco1`, the EC50 was > 11 µM (inactive). With `COCC1CCN(C(=O)CC2C(=O)NCCN2Cc2cccc(Oc3ccccc3)c2)CC1` (configuration not stated) the EC50 was > 11 µM (inactive). In the case of `COc1ccc(C2CC(=O)C(C=NCCCO)=C(O)C2)cc1` (configuration not stated), the EC50 was > 11 µM (inactive). For `COc1ccc(N=Cc2c(O)n(-c3cccc(C)n3)c(=O)c3ccccc23)cc1`, the EC50 was > 11 µM (inactive). `COc1ccc(C(=O)/C=C/Nc2ccc([N+](=O)[O-])cc2C)cc1OC` was tested, and the EC50 was > 11 µM (inactive). In the case of `Nc1cccc2c1C(=O)N(c1ccccc1)C2=O`, the EC50 was > 11 µM (inactive). In the case of `Fc1ccc(NCc2cccnc2)cc1F`, the EC50 was > 11 µM (inactive). `COc1ccc(Nc2nc(-c3cccnc3)nc3ccccc23)cn1` was tested, and the EC50 was > 11 µM (inactive). `COC(=O)CNC(=O)C1Nc2ccc(OC(F)(F)F)cc2C2C=CCC12` (configuration not stated) was tested, and the EC50 was > 11 µM (inactive). For `Cc1ccc(S(=O)(=O)Nc2ccccc2F)cc1C(=O)NNC(=O)c1ccccc1O`, the EC50 was > 11 µM (inactive). With `CN1CCN(/C=N/C2=C(C#N)C(c3ccccc3)C3=C(CC(C)(C)CC3=O)O2)CC1` (configuration not stated) the EC50 was > 11 µM (inactive). In the case of `Cc1nc(N2CCN(Cc3ccccc3)CC2)c(C#N)c2c1COC(C)(C)C2`, the EC50 was > 11 µM (inactive). For `Cn1c(=O)[nH]c(=O)c2c1nc(N/N=C/C(Br)=C/c1ccccc1)n2CCO`, the EC50 was > 11 µM (inactive). With `Nc1ccc(Nc2ccccc2)c(S(=O)(=O)O)c1` the EC50 was > 11 µM (inactive). In the case of `COc1cccc(F)c1C(=O)NC(=O)Nc1ccc2nc(C)oc2c1`, the EC50 was > 11 µM (inactive). For `Cc1cc(C(=O)O)ccc1-n1c(C)cc(/C=C2\SC(=O)NC2=O)c1C`, the EC50 was > 11 µM (inactive). In the case of `CN1C=C/C(=C\c2cc[n+](C)c3ccccc23)c2ccccc21`, the EC50 was > 11 µM (inactive). `O=C(NNc1ccccn1)C(=O)NNS(=O)(=O)c1ccc(F)cc1` was tested, and the EC50 was > 11 µM (inactive). `Oc1ccc(/C=N/N2CCCCC2)c(O)c1O` was tested, and the EC50 was > 11 µM (inactive). In the case of `Cc1ccc(S(=O)(=O)NNc2nc3ccccc3nc2C(F)(F)F)cc1`, the EC50 was > 11 µM (inactive). `Fc1ccc(-c2nc3c(Cl)cc(C(F)(F)F)cn3c2Cl)cc1` was tested, and the EC50 was > 11 µM (inactive). With `CCOC(=O)c1cc(-c2ccccc2)sc1NC(=S)Nc1cc(C)ccn1` the EC50 was > 11 µM (inactive). With `Cc1cc(/C=N/Nc2ccc([N+](=O)[O-])cn2)c(C)n1-c1cccc(C(=O)O)c1` the EC50 was > 11 µM (inactive). `CN(C)c1ccc(O)c2c1CC1CC3C(N(C)C)C(=O)C(C(N)=O)=C(O)[C@@]3(O)C(=O)C1=C2O` (some centres not stated) showed a pEC50 of 5.19. In the case of `Cc1ccc(/C=N/NC(=O)c2nnn(-c3nonc3N)c2-c2cccs2)cc1`, the EC50 was > 11 µM (inactive). In the case of `Nc1ccc2nc(-c3cccc(-c4nc5ccc(N)cc5[nH]4)n3)[nH]c2c1`, the EC50 was > 11 µM (inactive). `O=C(NNC(=O)c1ccccc1O)c1ccco1` was tested, and the EC50 was > 11 µM (inactive). For `CN1C(=O)/C(=C\c2ccc(N3CCCCC3)o2)C(=O)NC1=S`, the EC50 was > 11 µM (inactive). `O=c1cc(-c2ccccc2Cl)oc2c(NS(=O)(=O)c3cc(Cl)cc(Cl)c3O)ccc(O)c12` was tested, and the EC50 was > 11 µM (inactive). `CCC(=S)/C=C1\Sc2ccc3ccccc3c2N1CCCS(=O)(=O)O` was tested, and the EC50 was > 11 µM (inactive). With `O=C1NC(=O)[C@@H]2C3c4ccccc4C=CN3[C@H](C(=O)c3cccs3)[C@H]12` (some centres not stated) the EC50 was > 11 µM (inactive). With `COc1ccc(OC)c(N=Cc2c(O)c3ccccc3oc2=O)c1` the EC50 was > 11 µM (inactive). With `CCc1c(C)nc(SCC(=O)c2cccs2)c(C#N)c1C` the EC50 was > 11 µM (inactive). In the case of `CCCCC1=CC2=CC(=O)C(C)(OC(=O)c3cccs3)C(=O)C2=CO1` (configuration not stated), the EC50 was > 11 µM (inactive). With `COc1cccc(-n2c(O)c(C=Nc3c(C)n(C)n(-c4ccccc4)c3=O)c(=O)[nH]c2=O)c1` the EC50 was > 11 µM (inactive). With `Cc1ccc(/C=C2/Sc3ccc(C(=O)N4CCN(c5ccccn5)CC4)cc3NC2=O)cc1` the EC50 was > 11 µM (inactive). With `Nc1nnc2c(n1)CCCC2` the EC50 was > 11 µM (inactive). With `O=C(O)c1cccc(-n2cccc2/C=C\[N+](=O)[O-])c1` the EC50 was > 11 µM (inactive). `Oc1ccc(-c2cn3c(n2)SCC3)cc1O` was tested, and the EC50 was > 11 µM (inactive). For `Cn1ncc2c(NNC(=O)Cc3ccccc3)ncnc21`, the EC50 was > 11 µM (inactive). `Cc1ccc(O)c(-c2cc(C(=O)Nc3ccc(S(=O)(=O)Nc4nccc(C)n4)cc3)[nH]n2)c1` was tested, and the EC50 was > 11 µM (inactive). With `CCOc1cccc(C2C(C(=O)c3ccc(C)o3)=C(O)C(=O)N2c2nccs2)c1` (configuration not stated) the EC50 was > 11 µM (inactive). With `O=C1N=c2ccc([N+](=O)[O-])cc2=C1c1sc(=O)[nH]c1O` the EC50 was > 11 µM (inactive). In the case of `O=C(O)c1ccccc1N/N=C/c1c(Sc2nnnn2-c2ccccc2)nc2ccccn2c1=O`, the EC50 was > 11 µM (inactive). `Cc1ccn2c(=O)nc(SCC(=O)Nc3cc(C)on3)nc2c1` was tested, and the EC50 was > 11 µM (inactive). `COc1ccc(/C=C/c2ccc3c(Br)ccc(O)c3n2)cc1` was tested, and the EC50 was > 11 µM (inactive). `COc1ccc(N=Cc2c(O)n(Cc3ccccc3)c(=S)[nH]c2=O)c(OC)c1` was tested, and the EC50 was > 11 µM (inactive). In the case of `COc1cc(/C=N/Nc2nc(=O)[nH]nc2C)cc([N+](=O)[O-])c1O`, the EC50 was > 11 µM (inactive). In the case of `Cc1ccc(Cl)c2c1=NC(=O)C=2c1[nH]c(=S)[nH]c1O`, the EC50 was > 11 µM (inactive). For `Cc1cc(C)cc(-n2c(O)c(C=Nc3ccc(N4CCOCC4)cc3)c(=O)[nH]c2=S)c1`, the EC50 was > 11 µM (inactive). `CSc1nnc(N2C(=O)C(O)=C(C(=O)c3ccco3)C2c2cccc(Cl)c2)s1` (configuration not stated) was tested, and the EC50 was > 11 µM (inactive). In the case of `CCOc1cc2c(cc1/C=C(/C#N)c1ccc(C(=O)O)cc1)OCO2`, the EC50 was > 11 µM (inactive). For `Cc1ccc(NC(=O)CN2C(=O)N/C(=C\c3cccn3-c3cccc(C(=O)O)c3)C2=O)cc1`, the EC50 was > 11 µM (inactive). In the case of `CN(C)Cc1cc(O)c(CN(C)C)cc1O`, the EC50 was > 11 µM (inactive). `CCN1CCN(Cc2c(O)ccc3c2O/C(=C\c2ccc(C)cc2)C3=O)CC1` was tested, and the EC50 was > 11 µM (inactive). `CN(C)c1cc(-c2ccc([N+](=O)[O-])cc2)oc(=O)c1Cl` was tested, and the EC50 was > 11 µM (inactive). For `Cc1nc(S/C(=C/c2ccc(-c3cc(Cl)ccc3C)o2)C(=O)O)n[nH]1`, the EC50 was > 11 µM (inactive). In the case of `CC1(C)CC(=O)C2=C(C1)OC(N)=C(C#N)C21C(=O)N2CCCc3cccc1c32` (configuration not stated), the EC50 was > 11 µM (inactive). In the case of `COC(=O)c1ccc(-n2c(CCC(=O)O)ccc2-c2ccccc2)cc1`, the EC50 was > 11 µM (inactive).
